Laboratory results: article PMC4796655, “Structural insights into the methyl donor recognition model of a novel membrane-binding protein UbiG” (Scientific Reports, 2016)

How the values were obtained:
Type in all cases: binding
Details in all cases: read-out: [drawing 1] /
UbiG [1] = biological target: T1, UbiG (Escherichia coli, UniProt P17993, DEL165-187); experiment: isothermal titration calorimetry; X-ray structure of the complex […] Å
T1 construct: full-length, 240 residues, pET28a-UbiG (1-240), expressed in E. coli BL21 (DE3); purified as described previously

UbiG [2] = biological target: T2, UbiG (Escherichia coli, UniProt P17993); experiment: isothermal titration calorimetry
T2 construct: full-length, 240 residues, pET28a-UbiG (1-240), expressed in E. coli BL21 (DE3); purified as described previously
T2 sequence (P17993 1-240): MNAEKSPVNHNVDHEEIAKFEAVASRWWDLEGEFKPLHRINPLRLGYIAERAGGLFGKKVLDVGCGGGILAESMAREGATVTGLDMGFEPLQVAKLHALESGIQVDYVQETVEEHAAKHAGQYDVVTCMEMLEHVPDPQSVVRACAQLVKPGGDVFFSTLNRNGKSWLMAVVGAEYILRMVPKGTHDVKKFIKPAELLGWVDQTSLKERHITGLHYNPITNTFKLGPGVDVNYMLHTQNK
From the text: (§1) isothermal titration calorimetry on UbiG

UbiG [3] = biological target: T3, UbiG (Escherichia coli, UniProt P17993, V172A/Y176A); experiment: isothermal titration calorimetry
T3 construct: full-length, 240 residues, pET28a-UbiG (1-240), expressed in E. coli BL21 (DE3); purified as described previously
From the text: as §1

UbiG [4] = biological target: T4, UbiG (Escherichia coli, UniProt P17993, I177A/P182A/V181A); experiment: isothermal titration calorimetry
T4 construct: full-length, 240 residues, pET28a-UbiG (1-240), expressed in E. coli BL21 (DE3); purified as described previously
From the text: as §1

T1 sequence (P17993 other isoform, or with tags, fused parts or gaps DEL165-187): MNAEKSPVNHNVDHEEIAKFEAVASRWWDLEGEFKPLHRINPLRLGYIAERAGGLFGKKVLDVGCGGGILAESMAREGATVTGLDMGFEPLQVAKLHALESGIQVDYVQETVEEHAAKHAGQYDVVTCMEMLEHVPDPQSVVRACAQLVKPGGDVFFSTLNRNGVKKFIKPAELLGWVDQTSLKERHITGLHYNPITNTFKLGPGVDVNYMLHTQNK
T3 sequence (P17993 whole entry V172A/Y176A): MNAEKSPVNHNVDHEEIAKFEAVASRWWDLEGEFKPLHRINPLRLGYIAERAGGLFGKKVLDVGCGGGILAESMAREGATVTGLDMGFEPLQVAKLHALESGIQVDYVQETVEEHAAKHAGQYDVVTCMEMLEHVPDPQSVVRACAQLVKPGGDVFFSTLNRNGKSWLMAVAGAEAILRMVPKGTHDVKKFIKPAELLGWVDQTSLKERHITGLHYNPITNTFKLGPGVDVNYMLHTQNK
T4 sequence (P17993 whole entry I177A/V181A/P182A): as the sequence (P17993 whole entry V172A/Y176A) above, with A172V, A176Y, I177A, V181A, P182A counted along it

Kd (UbiG [1]): 1.84 ± 0.16 µM
Kd (UbiG [2]): 104 ± 17.2 µM
Kd (UbiG [3]): 3.37 ± 0.84 µM
Kd (UbiG [4]): 2.77 ± 0.36 µM
SMILES: Nc1ncnc2c1ncn2[C@@H]1O[C@H](CSCC[C@H](N)C(=O)O)[C@@H](O)[C@H]1O [SAH]
